Results published in the NIST ThermoML archive (doi:10.1016/j.fluid.2009.08.023).
Several values for one entry are separate records, joined by “and”; a condition that tells them apart may be missing. Identical values can stand only once.

Conditions: Liquid, Closed cell (Static) method

FC(C(F)(F)F)C(F)(F)F [1,1,1,2,3,3,3-heptafluoropropane]
Conditions | vapor or sublimation pressure [kPa]
233.8 K | 33.41
235.53 K | 36.68
237.5 K | 40.7
237.93 K | 41.62
239.21 K | 44.45
241.12 K | 48.94
243.06 K | 53.89
245.07 K | 59.45
247.09 K | 65.47
247.15 K | 65.66
249.1 K | 71.95
251.21 K | 79.25
253.11 K | 86.34
255.19 K | 94.66
257.15 K | 103.11
257.2 K | 103.29
258.2 K | 107.8
259.06 K | 111.83
261.03 K | 121.45
262.97 K | 131.55
265.23 K | 144.08
267.13 K | 155.39
269.15 K | 168.13
271.12 K | 181.25
271.9 K | 186.72
273.22 K | 196.14
275.23 K | 211.33
277.22 K | 227.17
277.55 K | 229.88
279.11 K | 243.04
281.21 K | 261.71
283.19 K | 280.28
283.23 K | 280.58
285.14 K | 299.44
287.16 K | 320.43
287.95 K | 329.02
289.06 K | 341.15
291.11 K | 364.72
292.83 K | 385.4
293.23 K | 390.27
294.98 K | 412.44
297.07 K | 440.12
297.75 K | 449.31
299.11 K | 468.35
301.1 K | 497.27
303.22 K | 529.51
306.1 K | 575.88
308.04 K | 608.64
318.59 K | 813.28
320.55 K | 856.24
321.06 K | 867.63
328.3 K | 1043.7
331.45 K | 1127.8
338.37 K | 1331.1
341.94 K | 1446
348.87 K | 1690.7
352.27 K | 1822.1
359.69 K | 2136.3
360.92 K | 2192.1
371.37 K | 2720.8
371.43 K | 2723.8

FC(F)(F)CC(F)(F)F [1,1,1,3,3,3-hexafluoropropane]
Conditions | vapor or sublimation pressure
239.02 K | 20.71 kPa
240.1 K | 21.95 kPa
242.86 K | 25.66 kPa
243.17 K | 26.02 kPa
243.26 K | 26.19 kPa
244.9 K | 28.6 kPa
247.01 K | 31.96 kPa
249.11 K | 35.66 kPa
249.3 K | 35.98 kPa
251.19 K | 39.62 kPa
253.11 K | 43.66 kPa
253.18 K | 43.74 kPa
253.29 K | 43.96 kPa
253.33 K | 44.11 kPa
255.21 K | 48.33 kPa
257.22 K | 53.21 kPa
259.25 K | 58.54 kPa
261.09 K | 63.74 kPa
262.94 K | 69.34 kPa
263.1 K | 69.79 kPa
263.2 K | 70.19 kPa
264.08 K | 72.93 kPa
264.88 K | 75.59 kPa
266.95 K | 82.8 kPa
269.03 K | 90.55 kPa
271.1 K | 98.85 kPa
273.22 K | 107.93 kPa
273.31 K | 108.24 kPa
273.32 K | 108.34 kPa
273.4 K | 108.71 kPa
275.23 K | 117.09 kPa
277.32 K | 127.3 kPa
279.29 K | 137.56 kPa
280.96 K | 146.78 kPa
283.24 K | 160.12 kPa
283.27 K | 160.26 kPa
285.26 K | 172.59 kPa
287.23 K | 185.57 kPa
289.23 K | 199.5 kPa
291.2 K | 214 kPa
293.16 K | 229.27 kPa
293.29 K | 230.28 kPa
294.32 K | 238.65 kPa
295.26 K | 246.45 kPa
297.25 K | 263.72 kPa
299.35 K | 282.86 kPa
301.4 K | 302.67 kPa
303.06 K | 319.32 kPa
303.24 K | 321.23 kPa
303.3 K | 321.84 kPa
303.55 K | 324.31 kPa
305.21 K | 342.11 kPa
306.13 K | 352.04 kPa
307.21 K | 364.17 kPa
307.88 K | 372.01 kPa
308.18 K | 375.53 kPa
308.2 K | 375.7 kPa
309.52 K | 391.11 kPa
311.21 K | 412.03 kPa
311.29 K | 412.84 kPa
312.22 K | 424.67 kPa
313.16 K | 436.99 kPa
313.29 K | 438.48 kPa
313.85 K | 445.61 kPa
315.31 K | 465.57 kPa
317.16 K | 491.51 kPa
319.27 K | 522.37 kPa
320.93 K | 547.63 kPa
321.21 K | 552.1 kPa
323.44 K | 587.43 kPa
325.87 K | 628.19 kPa and 628.25 kPa
327.21 K | 651.86 kPa
328.24 K | 669.95 kPa
329.19 K | 687.47 kPa
330.27 K | 707.58 kPa
330.43 K | 710.54 kPa
330.87 K | 718.92 kPa
332.2 K | 744.56 kPa
332.59 K | 752.25 kPa
335.42 K | 809.53 kPa
337.41 K | 851.82 kPa
337.88 K | 862 kPa
339.87 K | 906.21 kPa
341.92 K | 953.67 kPa
343.98 K | 1002.9 kPa
345.61 K | 1043.5 kPa
346.25 K | 1059.7 kPa
348.23 K | 1111.2 kPa
350.37 K | 1168.7 kPa
352.05 K | 1215.7 kPa
352.45 K | 1226.9 kPa
353.22 K | 1249.3 kPa
355.64 K | 1320.5 kPa
356.7 K | 1352.6 kPa
359.21 K | 1431.4 kPa
361.34 K | 1500.8 kPa
363.46 K | 1572.3 kPa
365.6 K | 1647.1 kPa
367.45 K | 1714.4 kPa
369.49 K | 1790.5 kPa
371.35 K | 1862.2 kPa
372.12 K | 1892.8 kPa
373.44 K | 1945.6 kPa
373.47 K | 1946.8 kPa
374.62 K | 1994.1 kPa
375.47 K | 2029.4 kPa
377.6 K | 2120.2 kPa
378.14 K | 2144.1 kPa
379.74 K | 2214.5 kPa
381.83 K | 2310.2 kPa
383.87 K | 2406.7 kPa
385.8 K | 2500.8 kPa
387.8 K | 2601.6 kPa
390.19 K | 2726.9 kPa
392.05 K | 2828.1 kPa
393.47 K | 2907.6 kPa
393.73 K | 2922.2 kPa
394.04 K | 2940 kPa
396.05 K | 3057 kPa
396.52 K | 3085.8 kPa
397.97 K | 3174.2 kPa

FC(F)CC(F)(F)F [1,1,1,3,3-pentafluoropropane]
Conditions | vapor or sublimation pressure [kPa]
235.65 K | 6.9
237.61 K | 7.83
239.61 K | 8.89
241.65 K | 10.09
243.57 K | 11.33
245.57 K | 12.77
247.67 K | 14.43
249.72 K | 16.22
251.16 K | 17.6
251.64 K | 18.05
252.68 K | 19.12
253.7 K | 20.23
255.59 K | 22.39
256.66 K | 23.69
257.56 K | 24.84
259.6 K | 27.62
261.27 K | 30.07
261.47 K | 30.38
261.62 K | 30.62
263.88 K | 34.3
265.69 K | 37.48
266.4 K | 38.77
267.21 K | 40.32
267.51 K | 40.9
267.65 K | 41.19
269.61 K | 45.21
271.59 K | 49.58
271.73 K | 49.9
272.61 K | 51.93
273.73 K | 54.67
275.73 K | 59.81
277.71 K | 65.28
277.74 K | 65.39
279.71 K | 71.23
279.72 K | 71.27
281.62 K | 77.24
281.74 K | 77.66
282.67 K | 80.74
283.01 K | 81.9
283.62 K | 84.01
285.6 K | 91.2
287.57 K | 98.81
287.58 K | 98.82
287.63 K | 99.06
289.64 K | 107.32
291.68 K | 116.25
292.11 K | 118.22
292.56 K | 120.29
293.02 K | 122.46
294.05 K | 127.38
296.05 K | 137.42
297.68 K | 146.08
298.07 K | 148.16
299.99 K | 158.97
302.22 K | 172.36
302.61 K | 174.75
302.82 K | 176.04
306.06 K | 197.31
308.24 K | 212.7
312.05 K | 241.93
314.67 K | 263.68
316.8 K | 282.34
318.62 K | 299.22
321.02 K | 322.69
324.94 K | 363.8
326.92 K | 386.02
328.21 K | 401
328.88 K | 409.17
332.34 K | 452.27
334.54 K | 481.58
335.06 K | 488.66
337.05 K | 516.55
337.07 K | 516.91
337.71 K | 526.04
339.46 K | 552.03
340.65 K | 570.3
340.66 K | 570.45
343.11 K | 609.1
344.74 K | 636.25
345.11 K | 642.16
347.04 K | 675.54
348.61 K | 703.69
349.13 K | 713.08
349.32 K | 716.41
351.61 K | 759.56
363.48 K | 1014
365.4 K | 1060.6
368.8 K | 1147.1
371.52 K | 1219.9
373.61 K | 1278.4
374.58 K | 1306
375.9 K | 1344.6
378.5 K | 1422.7
380.59 K | 1487.9
380.96 K | 1500
383.23 K | 1573.6
386.07 K | 1669.5
388.53 K | 1757
391.15 K | 1853.4
393.55 K | 1945
394.58 K | 1985.6
396.2 K | 2050.7
398.69 K | 2153.7
401.04 K | 2254.6
402.98 K | 2340.8
404.3 K | 2400.9
404.32 K | 2401.7
405.05 K | 2435.4
407.08 K | 2531.5
408.53 K | 2601.7
409.04 K | 2626.5
409.43 K | 2646
411.13 K | 2731.4
413.25 K | 2841.1
414.11 K | 2886.6
414.65 K | 2916.1
415.27 K | 2949.2
417.28 K | 3060.7
419.31 K | 3176.2
420.09 K | 3221.7
422.02 K | 3337.1
422.45 K | 3363
424.01 K | 3459.9
424.32 K | 3479.2
424.52 K | 3491.6
426.47 K | 3617.9
427.08 K | 3658.3
